From patent USRE38117E1, “Trioxane dimer compound having antiproliferative and antitumor activities” (Hauser, Inc., priority 1995, dated 2003)

How the values were obtained:
Format in all cases: cell-based
CCRF-CEM = assay: NCI 60 cell line screen (SRB), Leukemia
A549/ATCC = assay: NCI 60 cell line screen (SRB), Non-Small Cell Lung Cancer
HOP-62 = assay: as above; details: HOP-62 (Non-Small Cell Lung Cancer)
NCI-H226 = assay: as above
NCI-H23 = assay: as above
NCI-H460 = assay: as above
NCI-H522 = assay: as above
COLO 205 = assay: NCI 60 cell line screen (SRB), Colon Cancer; details: COLO 205 (Colon Cancer)
HCC-2998 = assay: NCI 60 cell line screen (SRB), Colon Cancer; details: HCC-2998 (Colon Cancer)
HCT-15 = assay: NCI 60 cell line screen (SRB), Colon Cancer; details: HCT-15 (Colon Cancer)
HT29 = assay: NCI 60 cell line screen (SRB), Colon Cancer
SW-620 = assay: NCI 60 cell line screen (SRB), Colon Cancer; details: SW-620 (Colon Cancer)
SF-295 = assay: NCI 60 cell line screen (SRB), CNS Cancer; details: SF-295 (CNS Cancer)
SF-539 = assay: NCI 60 cell line screen (SRB), CNS Cancer; details: SF-539 (CNS Cancer)
U251 = assay: NCI 60 cell line screen (SRB), CNS Cancer
SK-MEL-28 = assay: NCI 60 cell line screen (SRB), Melanoma; details: SK-MEL-28 (Melanoma)
OVCAR-3 = assay: NCI 60 cell line screen (SRB), Ovarian Cancer; details: OVCAR-3 (Ovarian Cancer)
OVCAR-5 = assay: NCI 60 cell line screen (SRB), Ovarian Cancer; details: OVCAR-5 (Ovarian Cancer)
OVCAR-8 = assay: NCI 60 cell line screen (SRB), Ovarian Cancer; details: OVCAR-8 (Ovarian Cancer)
A498 = assay: NCI 60 cell line screen (SRB), Renal Cancer
ACHN = assay: NCI 60 cell line screen (SRB), Renal Cancer
TK-10 = assay: NCI 60 cell line screen (SRB), Renal Cancer; details: TK-10 (Renal Cancer)
PC-3 = assay: NCI 60 cell line screen (SRB), Prostate Cancer; details: PC-3 (Prostate Cancer)
MCF7 = assay: NCI 60 cell line screen (SRB), Breast Cancer
MCF7/ADR-RES = assay: NCI 60 cell line screen (SRB), Breast Cancer
MDA-N = assay: NCI 60 cell line screen (SRB), Breast Cancer
T-47D = assay: NCI 60 cell line screen (SRB), Breast Cancer; details: T-47D (Breast Cancer)
[1] = tested on: murine keratinocyte cell line PE; assay: Growth inhibition of PE cells (MTT assay); details: murine keratinocytes, FIGS. 1-9

COC1OC2(C)CCC3CCCC(CCOC(=O)c4cccc(C(=O)OCCC5CCCC6CCC7(C)OOC56C(OC)O7)c4)C31OO2 (stereo not shown) [Compound 10, Trioxane Bis-ester Dimer]
Log10GI50 (CCRF-CEM): −7.15 M | Log10LC50 (CCRF-CEM): >−4.30 M | Log10TGI (CCRF-CEM): −5.70 M | Log10GI50 (A549/ATCC): −5.89 M | Log10LC50 (A549/ATCC): >−4.30 M | Log10TGI (A549/ATCC): >−4.30 M | Log10GI50 (HOP-62): −5.11 M | Log10LC50 (HOP-62): >−4.30 M | Log10TGI (HOP-62): >−4.30 M | Log10GI50 (NCI-H226): −5.64 M | Log10LC50 (NCI-H226): >−4.30 M | Log10TGI (NCI-H226): >−4.30 M | Log10GI50 (NCI-H23): −6.29 M | Log10LC50 (NCI-H23): >−4.30 M | Log10TGI (NCI-H23): >−4.30 M | Log10GI50 (NCI-H460): −5.76 M | Log10LC50 (NCI-H460): >−4.30 M | Log10TGI (NCI-H460): >−4.30 M | Log10GI50 (NCI-H522): −6.13 M | Log10LC50 (NCI-H522): >−4.30 M | Log10TGI (NCI-H522): >−4.30 M | Log10GI50 (COLO 205): −6.45 M | Log10LC50 (COLO 205): −4.48 M | Log10TGI (COLO 205): −5.18 M | Log10GI50 (HCC-2998): −5.32 M | Log10LC50 (HCC-2998): >−4.30 M | Log10TGI (HCC-2998): >−4.30 M | Log10GI50 (HCT-15): −6.14 M | Log10LC50 (HCT-15): >−4.30 M | Log10TGI (HCT-15): >−4.30 M | Log10GI50 (HT29): −6.35 M | Log10LC50 (HT29): >−4.30 M | Log10TGI (HT29): >−4.30 M | Log10GI50 (SW-620): −6.47 M | Log10LC50 (SW-620): >−4.30 M | Log10TGI (SW-620): >−4.30 M | Log10GI50 (SF-295): −5.01 M | Log10LC50 (SF-295): >−4.30 M | Log10TGI (SF-295): >−4.30 M | Log10GI50 (SF-539): −6.11 M | Log10LC50 (SF-539): >−4.30 M | Log10TGI (SF-539): >−4.30 M | Log10GI50 (U251): −6.09 M | Log10LC50 (U251): >−4.30 M | Log10TGI (U251): >−4.30 M | Log10GI50 (SK-MEL-28): −4.94 M | Log10LC50 (SK-MEL-28): >−4.30 M | Log10TGI (SK-MEL-28): >−4.30 M | Log10GI50 (OVCAR-3): −5.53 M | Log10LC50 (OVCAR-3): >−4.30 M | Log10TGI (OVCAR-3): >−4.30 M | Log10GI50 (OVCAR-5): −5.68 M | Log10LC50 (OVCAR-5): >−4.30 M | Log10TGI (OVCAR-5): >−4.30 M | Log10GI50 (OVCAR-8): −6.13 M | Log10LC50 (OVCAR-8): >−4.30 M | Log10TGI (OVCAR-8): >−4.30 M | Log10GI50 (A498): >−4.30 M | Log10LC50 (A498): >−4.30 M | Log10TGI (A498): >−4.30 M | Log10GI50 (ACHN): −5.85 M | Log10LC50 (ACHN): >−4.30 M | Log10TGI (ACHN): >−4.30 M | Log10GI50 (TK-10): −5.39 M | Log10LC50 (TK-10): >−4.30 M | Log10TGI (TK-10): >−4.30 M | Log10GI50 (PC-3): −7.09 M | Log10LC50 (PC-3): >−4.30 M | Log10TGI (PC-3): >−4.30 M | Log10GI50 (MCF7): −5.92 M | Log10LC50 (MCF7): >−4.30 M | Log10TGI (MCF7): >−4.30 M | Log10GI50 (MCF7/ADR-RES): −5.36 M | Log10LC50 (MCF7/ADR-RES): >−4.30 M | Log10TGI (MCF7/ADR-RES): >−4.0 M | Log10GI50 (MDA-N): −5.97 M | Log10LC50 (MDA-N): >−4.30 M | Log10TGI (MDA-N): >−4.30 M | Log10GI50 (T-47D): −6.76 M | Log10LC50 (T-47D): >−4.30 M | Log10TGI (T-47D): >−4.30 M | antiproliferative activity [1]: high antiproliferative activity
